Assay results: PMC12040169 (PLOS Biology, 2025)

Assay: in vitro
Settings: human, hela cells, % viability

SMILES	viability at 28.5 h, 10 µM [%]
CC1(C)CC(N(Cc2ccccc2)C(=O)Cc2ccco2)CCO1 (stereo not shown) [CBK019561]	95.9
COc1ccc(-n2cc(-c3ccccc3C(F)(F)F)nn2)cc1OC [CBK112965]	89.4
COc1ccc(-c2cnn(-c3cncnc3)n2)cc1 [CBK112763]	94.5
CC(=O)Nc1cccc(CN(CCCCO)C2CC2)c1 [CBK304806]	91.6
NC(CCCCNC(=O)c1ccccc1)C(=O)O (stereo not shown) [CBK261087]	97
Cc1cccnc1CN(C)C(=O)c1cccc(NC(=O)C2CCCC2)c1 [CBK306913]	82.9
COc1ccc(C2NC(C(=O)O)CS2)cc1CN1C[C@@H]2C[C@H](C1)c1cccc(=O)n1C2 (stereo partly shown) [CBK020798]	93.8
Cc1ccc(C)c(C2CCCN2C(=O)Cn2cc(C(=O)NCc3ccccc3)ccc2=O)c1 (stereo not shown) [CBK286052]	112
COc1cccc(NC(=O)c2cnc(-c3ccccc3)c(-c3cccnc3)c2)c1OC [CBK037487]	92.8
Cc1c(C(=O)CCN(C)C2CC=C(c3ccc(F)cc3)CC2)cnn1CCO (stereo not shown) [CBK023799]	90.4
C=C(C)Cn1c(SCC(C)C)nnc1-c1scc(C)c1Cl [CBK200095]	92.7
CCCC(=O)c1ccc(S(=O)(=O)N2CCN(Cc3ccc(O)c(F)c3)CC2)cc1 [CBK062959]	111
Cc1cc(C)nc(N/N=C/c2cn(-c3ccccc3)nc2-c2ccc([N+](=O)[O-])cc2)n1 [CBK262864]	90.5
Cn1nnc2c(N3CCN(C(=O)c4ccccc4)CC3)ncnc21 [CBK287830]	90.6
COc1ccc(Cn2nc(NS(=O)(=O)c3cn(C)cn3)c3ccccc32)cc1 [CBK048143]	87.7
O=C1c2ccccc2C2OCc3ccccc3N12 (stereo not shown) [CBK109952]	105
COc1ccc(N(C(C)C(=O)NN=C2CCN(C)CC2)S(C)(=O)=O)cc1 (stereo not shown) [CBK262390]	94.2
O=C(O)c1cccc(Cn2c(C3CC3)n[nH]c2=S)c1 [CBK288401]	87.1
S=C(NCc1ccc(Cl)c(Cl)c1)Nc1ccncc1 [CBK016649]	84.9
Cc1c(Cl)c([N+](=O)[O-])nn1CCCC(=O)Nc1cc(Br)ccc1O [CBK268875]	93.1
CCC(C)(C)C(=O)Nc1ccc(Br)c2ccccc12 [CBK091342]	79.7
C/C(CCS(=O)(=O)c1ccc(Br)cc1)=N\NC(N)=S [CBK261370]	102

SMILES	viability at 28.5 h, 10 µM [%]
CCC(C)(C)c1ccc(S(=O)(=O)N2CCCN(Cc3ccnc4ccccc34)CC2)cc1 [CBK062865]	92.1
Cc1ccccc1-c1nnc(-c2ccc(C(=O)N=c3sccn3C)cc2)o1 [CBK298283]	97.1
COc1ccc2nc(N/C(N)=N/C(=O)COc3ccc(Cl)cc3)nc(C)c2c1 [CBK263924]	95
CCOc1ccc(NC(=O)Cn2c3c(c(-c4ccccc4)cc2=O)CCCC3)cc1 [CBK294457]	85.8
O=C1NN(c2ccc(F)c(Cl)c2)C(=O)/C1=C/c1ccc(-c2ccc(Cl)cc2)o1 [CBK095978]	98.1
Cc1nn(C)c(=O)c2c(C)noc12 [CBK001462]	101
CC(C)(C)c1nc(COc2ccc3nonc3c2)no1 [CBK005831]	91.8
COc1cc2nnnn2c(-c2ccccc2)n1 [CBK026189]	102
Cn1c(=O)c2c(O)cc(=O)n(Cc3ccccc3)c2n(C)c1=O [CBK291245]	81.5
O=S(=O)(N[C@H]1CO[C@H]2[C@@H]1OC[C@@H]2n1cc(-c2ccccn2)nn1)c1cccs1 [CBK289508]	88.7
Cc1nc2c(C(=O)NCC3CCCO3)cnn2c(C)c1Cc1cccnc1 (stereo not shown) [CBK162160]	85.8
CC(=O)Cc1nc2ccccc2nc1O [CBK089805]	92.2
CC1Cc2ccccc2N1CCNC(=O)Cc1cn2ccsc2n1 (stereo not shown) [CBK306499]	87.6
COc1ccc(Cl)cc1N1CCN(Cc2ncc[nH]2)CC1 [CBK126418]	98.1
CN1C(=O)C2(CC(=O)N(CC3CCCCC3)C2=O)c2cc(F)ccc21 (stereo not shown) [CBK075257]	106
CCCC1=NN(c2ccc([N+](=O)[O-])cc2)C(=O)/C1=C/NC1CC(C)(C)NC(C)(C)C1 [CBK262896]	84.9
O=C(CSc1nnc(Cc2ccccc2)o1)N1c2ccccc2Sc2ccccc21 [CBK268008]	96.4
Cc1nc(C(=O)N(CCO)Cc2ccccc2)cs1 [CBK304810]	105
O=C(Nc1ccccc1N1CCNCC1)c1cccs1 [CBK029443T]	95.5
COc1c(C(N)=O)c(O)c(OC)c2occc12 [CBK016255]	80.5
C=CCn1ncc(CN(C)Cc2nc3ccccc3[nH]2)c1C [CBK283169]	96
CN1CCN(S(=O)(=O)c2cccc3nsnc23)CC1 [CBK062428]	102

SMILES	viability at 28.5 h, 10 µM [%]
CN(C)Cc1ccc(C(=O)N2CCCC2(C)C(=O)N(C)C)cc1 (stereo not shown) [CBK281955]	90
COc1ccc([C@@]23CC[C@@H](NC(=O)Nc4ccc(C)c(F)c4F)C[C@@H]2N(C)CC3)cc1OC [CBK073686T]	87.3
CSc1nc(NC(=O)Cc2c[nH]c3ccccc23)cc(N2CCNCC2)n1 [CBK050265T]	84.4
CCCSc1ccc2[nH]c(NC(=O)CSc3nc[nH]n3)nc2c1 [CBK270181]	51.8
CCCC(=O)c1ccc(S(=O)(=O)N2CCN(Cc3ccc4cccc(O)c4n3)CC2)cc1 [CBK063158]	102
COc1cccc(CNCC2CCCO2)c1OCc1ccccc1 (stereo not shown) [CBK269798C]	105
CC(=O)Nc1ccc(-c2nc(-c3ccc(-c4ccccc4)cc3)c(-c3ccc(-c4ccccc4)cc3)[nH]2)cc1 [CBK262620]	87.3
CN1CCN(C(=O)CN(Cc2ccccc2)S(C)(=O)=O)CC1 [CBK265745]	97.6
CCOc1cc(C(c2c[nH]c3ccccc23)c2c[nH]c3ccccc23)cc([N+](=O)[O-])c1O [CBK266061]	101
COc1cc(CN2CCN(Cc3cccc([N+](=O)[O-])c3)CC2)cc(OC)c1 [CBK263156]	95
CC(C)NC(=O)C1CC2CCC1(C)CC21NC(=O)c2ccccc2O1 (stereo not shown) [CBK285261]	92
CCN1CCN(C(=O)c2ccc3nc(-c4ccccc4)c(-c4ccccc4)nc3c2)CC1 [CBK269090]	94.7
O=S(=O)(NCc1ccccc1)c1ccc(Cl)cc1 [CBK086159]	86.7
Cc1ncccc1-c1csc(C2CCCO2)n1 (stereo not shown) [CBK304121]	117
O=C(Nc1cccc2nsnc12)c1ccc(Cl)cc1 [CBK263793]	96.1
Cc1cc(I)ccc1S(=O)(=O)NCc1ccccn1 [CBK262155]	106
NS(=O)(=O)c1ccc(CCNC2=CC(=O)CC(c3ccco3)C2)cc1 (stereo not shown) [CBK265852]	97
O=C(Nc1ccc([C@@H](O)[C@H]2COCC(=O)N2Cc2ccccn2)cc1)c1cccs1 [CBK289700]	109
COc1ccc(C(=O)NCc2ccccc2)c(OC)n1 [CBK200190]	142
O=C(Nc1ccc(NC(=O)c2ccco2)cc1)c1ccc(N2CCOCC2)c([N+](=O)[O-])c1 [CBK268739]	95.2
